Source: patent US5859067A, “Use of natural products and related synthetic compounds for the treatment of cardiovascular disease” (priority 1993, dated 1999)
Where “and” joins values, the source holds several entries; their conditions need not be identical. Identical values can stand only once. Like-named read-outs stand apart in the source and are kept apart here.

Experiments:
[1] = system: brine shrimp (Artemia salina Leach); assay: Brine shrimp toxicity bioassay; format: in vivo; conditions: for LC50: read-out: LC50 brine shrimp
Description: There are many applications of the assay including analysis of toxic substances, anaesthetics, morphine-like substances and cocarcinogenicity of phorbol esters.
6 (K Hostettman, ed.), Academ Press, London, 1-32. DMSO solutions of the substances to be tested were added directly to the vials containing the brine shrimp. As the concentration of DMSO that we wished to use was higher than the recommended 1% v/v testing of the toxicity of the DMSO was therefore necessary.
Brine shrimp toxicity was assayed, except for some minor modifications, according to the method of McLaughlin et al as reported in Brine Shrimp: A convenient general bioassay for active plant constituents, B N Meyer, N R Ferrigni, J E Putman, L B Jacobsen, D E Nhols and J L McLaughlin. […] J L McLaughlin. […] 6 (K Hostettman, ed.), Academ Press, London, 1-32. Ten shrimp were added transferred to each of the vials and the volume adjusted to 4.9 mL. Each dose was performed in triplicate, including the control. In quick succession, the appropriate volume of additional DMSO for each dose, required to achieve a final concentration of 2%, was added before the appropriate volume of test solution. The vials were gently mixed and the time noted. After 24 hours, the number of survivors were counted and % mortality was determined.
The LC50 values were expressed in both μM and μg/mL.

[2] = molecular target: T1, human erythrocyte plasma membrane Ca^2+ -ATPase (Homo sapiens, UniProt P23634); assay: Ca^2+ -ATPase assay (erythrocyte membranes; Table 1); format: biochemical; conditions: for inhibition at 100 µM / inhibition at 50 µM: read-out: INHIBITION OF Ca^2+ -ATPase PERCENT (%)
T1 construct: Calmodulin-depleted erythrocyte membranes were prepared by continuous filtration through a hollow fibre; tissue New South Wales Red Cross Transfusion Service, Sydney; host or cells: human packed red blood cells (calmodulin-depleted erythrocyte membranes)
Description: Natural and synthetic compounds of formula (I) were tested for their ability to influence human erythrocyte plasma membrane Ca^2+ -ATPase.
Packed cells were obtained from the New South Wales Red Cross Transfusion Service, Sydney. The whole preparation was carried out at 4° C. 1 unit of packed red cells was washed 3 times with isotonic buffer, containing 130 mM KCl, 20 mM Tris-HCl (pH 7.4), and the cells were collected by centrifugation at 4,000 RPM. The cells were haemolysed by the buffer containing 1 mM EDTA, 10 mM Tris-Hcl (pH 7.4), 0.5 mM PMSF (phenylmethyl sulfonyl fluoride). The haemolyzate mixture was passed through the hollow fibre system until the membrane appeared white, and then washed with 10 mM potassium Hepes (pH 7.4). The membranes were collected by centrifugation at 10,000 RPM for 20 min, the membranes were resuspended in storage buffer containing 130 mM KCl, 2 mM dithiothreitol, 0.5 mM MgCl2, 20 mM potassium-Hepes (pH 7.5). The membranes with protein concentration of 1.5-5.4 mg/ml were stored at -80° C. until required.
Erythrocyte membranes (0.071-0.098 mg/ml) were incubated at 37° C. for one hour in a total volume of 0.4 ml of 65 mM KCl, 20 mM potassium-Hepes, 5 mM MgCl2, 50 μM CaCl2, 0.1 μm calmodulin, 0.1 mM EGTA. The reaction was started by adding 2 mM ATP(pH 7.4). […] The activity of the Mg^2+ -ATPase (assayed in the absence of added CaCl2) was subtracted from the total activity assayed in the presence of Ca^2+. […] A concentrated solution of the test substances was added to the reaction medium before adding ATP.

[3] = read-out: INHIBITION OF Ca^2+ -ATPase IC50
[4] = Artemia salina, 24 h, read-out: % Deaths

T1 sequence (P23634 1-1205 isoform P23634-6): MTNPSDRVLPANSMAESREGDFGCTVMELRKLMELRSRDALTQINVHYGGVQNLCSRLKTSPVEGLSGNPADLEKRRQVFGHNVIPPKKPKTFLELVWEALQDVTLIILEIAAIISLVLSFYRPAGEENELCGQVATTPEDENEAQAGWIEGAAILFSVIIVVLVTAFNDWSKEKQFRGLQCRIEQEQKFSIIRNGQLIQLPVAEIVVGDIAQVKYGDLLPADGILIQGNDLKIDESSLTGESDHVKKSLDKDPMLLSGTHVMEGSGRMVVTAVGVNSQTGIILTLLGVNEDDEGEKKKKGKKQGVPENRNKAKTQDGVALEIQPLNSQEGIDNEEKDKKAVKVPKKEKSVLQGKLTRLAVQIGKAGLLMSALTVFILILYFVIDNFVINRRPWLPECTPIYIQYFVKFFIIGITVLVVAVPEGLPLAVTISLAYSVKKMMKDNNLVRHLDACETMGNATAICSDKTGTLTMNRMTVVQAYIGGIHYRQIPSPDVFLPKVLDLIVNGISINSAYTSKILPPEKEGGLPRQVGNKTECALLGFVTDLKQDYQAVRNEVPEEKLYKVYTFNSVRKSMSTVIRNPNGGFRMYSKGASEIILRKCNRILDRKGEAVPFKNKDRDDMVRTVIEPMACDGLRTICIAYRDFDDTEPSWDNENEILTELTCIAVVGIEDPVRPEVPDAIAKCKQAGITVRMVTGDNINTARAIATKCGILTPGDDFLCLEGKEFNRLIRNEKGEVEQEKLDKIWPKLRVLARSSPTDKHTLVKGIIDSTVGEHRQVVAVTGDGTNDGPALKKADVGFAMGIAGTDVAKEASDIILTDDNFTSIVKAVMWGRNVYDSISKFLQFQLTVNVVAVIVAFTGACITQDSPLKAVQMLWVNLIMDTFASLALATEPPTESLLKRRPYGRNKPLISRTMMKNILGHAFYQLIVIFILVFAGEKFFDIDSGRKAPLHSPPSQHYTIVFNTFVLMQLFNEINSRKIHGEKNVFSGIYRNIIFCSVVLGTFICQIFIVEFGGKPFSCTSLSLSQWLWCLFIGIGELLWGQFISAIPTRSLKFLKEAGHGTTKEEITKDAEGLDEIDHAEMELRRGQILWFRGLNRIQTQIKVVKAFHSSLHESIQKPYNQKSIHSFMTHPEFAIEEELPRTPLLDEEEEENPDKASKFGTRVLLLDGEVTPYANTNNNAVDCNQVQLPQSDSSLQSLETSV
T1 sequence (P35613 140-385 partner limits assumed): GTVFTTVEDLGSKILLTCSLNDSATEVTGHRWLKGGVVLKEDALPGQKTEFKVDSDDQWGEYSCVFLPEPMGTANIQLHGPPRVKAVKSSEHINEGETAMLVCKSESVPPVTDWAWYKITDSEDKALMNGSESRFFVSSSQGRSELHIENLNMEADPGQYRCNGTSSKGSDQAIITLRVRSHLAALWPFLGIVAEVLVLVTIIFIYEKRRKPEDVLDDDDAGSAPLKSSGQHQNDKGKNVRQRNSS

Row | Compound | LC50 ([1]; Artemia salina, 24 hours) | inhibition at 100 µM ([2]; at 100 μM) [%] | IC50 [2, 3] [µM] | also measured
1 | Cc1c(O)cc(CCCCCCCCc2cc(O)c(C)c(O)c2)cc1O [1,8-bis(3,5-dihydroxy-4-methylphenyl)octane] | > 25 µM and > 9 µg/mL | – | – | –
2 | Cc1c(O)cc(CCCCCCCCCCc2cc(O)c(C)c(O)c2)cc1O [1,10-bis(3,5-dihydroxy-4-methylphenyl)decane] | > 25 µM and > 9.7 µg/mL | – | – | –
3 | Oc1ccc(CCCCCCCCCCc2ccc(O)cc2)cc1 [1,10-bis(4-hydroxyphenyl)decane] | 810 nM and 0.26 µg/mL | 52 | 93 | –
4 | Cc1c(O)cc(CCCCCCCCCCCCc2cc(O)c(C)c(O)c2)cc1O [1,12-bis(3,5-dihydroxy-4-methylphenyl)dodecane] | > 25 µM and > 10 µg/mL | – | – | –
5 | Oc1ccc(CCCCCCCCCCCCc2ccc(O)cc2)cc1 [1,12-bis(4-hydroxyphenyl)dodecane] | 3.8 µM and 1.4 µg/mL | – | – | –
6 | Oc1ccccc1CCCCCCCCCCCCCCc1ccccc1O [1,14-bis(2-hydroxyphenyl)tetradecane] | 1.9 µM and 0.72 µg/mL | 84 | 28 | –
7 | Oc1ccc(CCCCCCCCCCCCCCc2ccc(O)cc2)cc1 [1,14-bis(4-hydroxyphenyl)tetradecane] | 7.9 µM and 3.7 µg/mL | 5 | 280 | –
8 | Cc1cc(CCCCCCCCCCc2cccc(C)c2O)ccc1O [1-(2-hydroxy-3-methylphenyl)-10-(4-hydroxy-3-methylphenyl)decane] | 2.2 µM and 0.78 µg/mL | – | – | –
9 | Oc1ccc(CCCCCCCCCCc2ccccc2O)cc1 [1-(2-hydroxyphenyl)-10-(4-hydroxyphenyl)decane] | 350 nM and 0.11 µg/mL | – | 12 | inhibition at 50 µM [2]: 100%
10 | Oc1ccc(CCCCCCCCCCCCc2ccccc2O)cc1 [1-(2-hydroxyphenyl)-12-(4-hydroxyphenyl)dodecane] | 54 nM and 0.019 µg/mL | 99 | 18.8 | –
11 | Oc1ccc(CCCCCCCCCCCCCCc2ccccc2O)cc1 [1-(2-hydroxyphenyl)-14-(4-hydroxyphenyl)tetradecane] | 3.7 µM and 1.4 µg/mL | 60 | 81 | –
12 | Cc1cc(Cc2cc(C)cc(C(C)(C)C)c2O)c(O)c(C(C)(C)C)c1 [2,2'-methylenebis(4-methyl-6-tert-butylphenol), reference compound] | – | – | 45 | inhibition at 100 µM [2]: 74%
13 | CC(C)(C)c1cc(C(C)(C)C)c(O)c(C(C)(C)C)c1 [2,4,6-tri-tert-butylphenol, reference compound] | – | 79 | – | IC50 [2]: 15 µM
14 | Oc1ccccc1C1CCCCC1 [2-cyclohexylphenol] | > 25 µM and > 4.4 µg/mL | – | – | IC50 [2]: 186 µM; inhibition at 100 µM [2]: 28%
15 | CCCCCCCCCCc1ccccc1O [2-decylphenol] | 680 nM and 0.16 µg/mL | 85 | 42 | –
16 | CCCCCCCCCc1cc(O)c(C)c(O)c1 [2-methyl-5-nonyl-resorcinol] | 8.3 µM and 2.1 µg/mL | – | – | –
17 | CCCCCCCCC(=O)c1ccccc1O [2-nonanoylphenol] | 630 nM and 0.15 µg/mL | 32 | > 100 | –
18 | CCCCCCCCc1ccccc1O [2-octylphenol] | – | – | – | IC50 [2]: 32 µM; inhibition at 100 µM [2]: 100%; LC50 ([1]; Artemia salina, 24 h): 1.5 µM and 0.31 µg/mL
19 | CC(C)(C)c1cc(O)c(O)c(C(C)(C)C)c1 [3,5-di-tert-butyl-catechol, reference compound] | – | 76 | 84 | –

Row | Compound | LC50 ([1]; Artemia salina, 24 hours) | inhibition at 100 µM ([2]; at 100 μM) [%] | IC50 [2, 3] [µM] | also measured
20 | CCCCCCCCCc1cccc(O)c1 [3-nonylphenol] | – | – | – | IC50 [2]: 64 µM; inhibition at 100 µM [2]: 69%; LC50 ([1]; Artemia salina, 24 h): 320 nM and 0.07 µg/mL
21 | Oc1ccc(C2CCCCC2)cc1 [4-cyclohexylphenol] | – | 16 | – | IC50 [2]: 271 µM; LC50 ([1]; Artemia salina, 24 h): > 25 µM and > 4.4 µg/mL
22 | CCCCCCCCCCc1ccc(O)cc1 [4-decylphenol] | – | – | – | IC50 [2]: 170 µM; inhibition at 100 µM [2]: 24%; LC50 ([1]; Artemia salina, 24 h): 270 nM and 0.064 µg/mL
23 | CCCCCCc1ccc(O)cc1O [4-hexylresorcinol, reference compound] | 62 µM and 12 µg/mL | 17 | 259 | –
24 | CCCCCCCCC(=O)c1ccc(O)cc1 [4-nonanoylphenol] | 100 nM and 0.024 µg/mL | – | – | LC50 ([1]; 24 hours): 0.1 µM
25 | CCCCCCCCCc1ccc(O)cc1 [4-nonylphenol] | – | – | – | IC50 [2]: 114 µM; inhibition at 100 µM [2]: 22%; LC50 ([1]; Artemia salina, 24 h): 400 nM and 0.088 µg/mL
26 | CC(C)(C)CC(C)(C)c1ccc(O)cc1 [4-tert-octylphenol, reference compound] | – | – | – | IC50 [2]: 60 µM; inhibition at 100 µM [2]: 94%
27 | CCCCCCCCCCc1cc(O)cc(O)c1 [5-decylresorcinol] | 54 µM and 15 µg/mL | 30 | 135 | –
28 | CCCCCCCCCCCCCCCCCc1cc(O)cc(O)c1 [5-heptadecylresorcinol] | > 100 µM and > 18 µg/mL | – | – | –
29 | CCCCCCCCCc1cc(O)cc(O)c1 [5-nonylresorcinol] | > 100 µM and > 18 µg/mL | 44 | 108 | –
30 | CCCCCc1cc(O)cc(O)c1 [5-pentylresorcinol (olivetol), 5-pentylresorcinol, reference compound] | – | – | – | LC50 ([1]; Artemia salina, 24 h): > 100 µM and > 18 µg/mL
31 | CCCCCCCCCCCCc1cc2c(C)cc(=O)oc2cc1O [6-dodecyl-7-hydroxy-4-methylcoumarin] | > 25 µM and > 8.1 µg/mL | – | – | –
32 | Cc1cc(C(C)(C)C)c(O)c(C(C)(C)C)c1 [BHT, 2,6-di-tert-butyl-4-methylphenol, reference compound] | – | 69 | 66 | –
33 | C[S+](C)[O-] [DMSO, dimethyl sulfoxide] | – | – | – | toxicity to brine shrimp (in words) ([1]; 24 hours): No toxicity towards brine shrimp was observed; mortality at 1 % [1, 4]: 0%; mortality at 2 % [1, 4]: 0%; mortality at 3 % [1, 4]: 0%; mortality at 4 % [1, 4]: 0%; mortality at 5 % [1, 4]: 9%; mortality at 7 % [1, 4]: 12%; mortality at 9 % [1, 4]: 18%; mortality at 11 % [1, 4]: 57%; mortality at 13 % [1, 4]: 96%; mortality at 15 % [1, 4]: 100%; mortality at 20 % [1, 4]: 100%; mortality at 25 % [1, 4]: 100%; LC50 brine shrimp, solvent ([1]; solvent): 11 % v/v
34 | Oc1cc(O)cc(CCCCCCCCCCCCCCc2cc(O)cc(O)c2)c1 [bisnorstriatol, 1,14-bis(3,5-dihydroxyphenyl)tetradecane] | 40 µM and 17 µg/mL | 35 | > 100 | inhibition at 500 µM ([2]; at 500 μM): 69.1%; toxicity to brine shrimp (in words) ([1]; 24 hours): relatively low toxicity
35 | CCCCCCCCCCc1cc(O)cc(O)c1C(=O)OCC [ethyl 2,4-dihydroxy-6-decylbenzoate] | 2.3 µM and 0.75 µg/mL | 60 | 85 | –
36 | Cc1c(O)cc(CCCCCCCCCCCCCCc2cc(O)cc(O)c2)cc1O [grebustol-A, 1-(3,5-dihydroxy-phenyl)-14-(3,5-dihydroxy-4-methylphenyl)tetradecane] | – | – | 17 | inhibition at 50 µM [2]: 100%
37 | Oc1cc(O)cc(CCCCC/C=C\CCCCCCCc2cc(O)cc(O)c2)c1 [grebustol-B, 1,14-bis(3,5-dihydroxyphenyl)tetradec-Z-6-ene] | – | 90 | 50 | Ca^2+ -ATPase inhibitory activity (in words) [2]: weaker
38 | nonylphenol [nonylphenol (commercial), reference compound] | – | – | 27.5 | INHIBITION OF Ca^2+ -ATPase PERCENT (%) ([2]; at 100 μM): 100%
